The values below come from patent US20240327393A1 (SIRONAX LTD., priority 2021, published 2024).

For the assay, the system named is HT-1080 (ATCC, CCL-121) cells. In words: HT-1080 cell viability assay with ferroptosis inducer RSL3 (Cell Titer-Glo). The format is cell-based. The conditions noted are these: Homo sapiens, HT-1080 cells treated with RSL3, 3-fold, 10-point dilution, 1.1 μM highest concentration, read-out: EC50 (nM), ferroptosis inhibitory activity. The method in brief: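 HT-1080 cells (6000 per well) were cultured overnight at 37 °C, then co-treated with RSL3 and compound in a 3-fold, 10-point series topping at 1.1 μM. Viability was read by CellTiter-Glo luminescence and normalized to untreated controls. EC50 came from a sigmoidal non-linear regression fit.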

Read-outs that look alike come from different tables or passages of the source.

On to `CC[C@@H]1CN(c2ccc(Nc3ccc4c(c3)OCC(=O)N4)c(C)n2)C[C@@H](C)O1` [Compound 471, 7-((6-((2R,6R)-2-ethyl-6-methylmorpholino)-2-methylpyridin-3-yl)amino)-2H-benzo[b][1,4]oxazin-3(4H)-one], for which, under “Table 3”, the EC50 lay in the range of 0.1 to 100 nM.
On the same count and under the same terms, next, `Cc1cc(N2CCC(O)(C(F)(F)F)CC2)ccc1Nc1cc(C)c2c(c1)OCC(=O)N2` [Compound 511, 7-((4-(4-hydroxy-4-(trifluoromethyl)piperidin-1-yl)-2-methylphenyl)amino)-5-methyl-2H-benzo[b][1,4]oxazin-3(4H)-one]: 0.1 to 100 nM.
With `CCCCCOc1ccc(Nc2ccc3c(c2)n(C)c(=O)n3C)cc1OC` [Compound 296, 5-((3-methoxy-4-(pentyloxy)phenyl)amino)-1,3-dimethyl-1,3-dihydro-2H-benzo[d]imidazol-2-one], the EC50 (Table 2) was in the range of 0.1 to 100 nM.
The same measure, in the same setting: with `CCn1[nH]c2cc(Nc3ccc(N4CCC(C(F)(F)F)CC4)cc3)ccc2c1=O` [Compound 252, 2-ethyl-6-((4-(4-(trifluoromethyl)piperidin-1-yl)phenyl)amino)-1,2-dihydro-3H-indazol-3-one] the figure was 0.1 to 100 nM; with `Cc1cc(N2CCC(C)CC2)c(F)cc1Nc1ccc2c(c1)n(C)c(=O)n2C` [Compound 264, 5-((5-fluoro-2-methyl-4-(4-methylpiperidin-1-yl)phenyl)amino)-1,3-dimethyl-1,3-dihydro-2H-benzo[d]imidazol-2-one], 0.1 to 100 nM; with `CC(C)(C)NC(=O)N1Cc2ccc(Nc3ccc(N4CCC(C(F)(F)F)CC4)cc3)cc2C1` [Compound 205, N-(tert-butyl)-5-((4-(4-(trifluoromethyl)piperidin-1-yl)phenyl)amino) isoindoline-2-carboxamide], 0.1 to 100 nM.
On the same count and under the same terms, with `CN1Cc2cc(Nc3ccc4c(c3)OCCO4)ccc2C1=O` [Compound 229, 5-((2,3-dihydrobenzo[b][1,4]dioxin-6-yl)amino)-2-methylisoindolin-1-one] the figure was 0.1 to 100 nM; with `Cn1c(=O)oc2cc(Nc3ccc(N4CCC(C(F)(F)F)CC4)cc3)ccc21` [Compound 256], 0.1 to 100 nM.
For `COc1cc(N2CCC(C(F)(F)F)CC2)ccc1Nc1ccc2c(c1)OCC(=O)N2C` [Compound 90, 7-((2-methoxy-4-(4-(trifluoromethyl)piperidin-1-yl)phenyl)amino)-4-methyl-2H-benzo[b][1,4]oxazin-3(4H)-one], the EC50 (Table 2) lay within 0.1 to 100 nM.
`CC1CN(c2ccc(Nc3ccc4oc(=O)[nH]c4c3)cc2)CC(C)O1` (stereo not drawn) [Compound 441, 5-((4-(2,6-dimethylmorpholino)phenyl)amino)benzo[d]oxazol-2(3H)-one]: the EC50 (Table 2) was in the range of 0.1 to 100 nM.
Take `Cc1cc(N2CCN(C(=O)C(F)(F)F)[C@@H](C)C2)ccc1Nc1ccc2c(c1)OCC(=O)N2` [Compound 552, (S)-7-((2-methyl-4-(3-methyl-4-(2,2,2-trifluoroacetyl)piperazin-1-yl)phenyl)amino)-2H-benzo[b][1,4]oxazin-3(4H)-one]: the EC50 (Table 3) was 0.1 to 100 nM.
In the case of `Cc1ccc(Cl)c(Nc2ccc3c(c2)CN(C)C3=O)c1` [Compound 230, 5-((2-chloro-5-methylphenyl)amino)-2-methylisoindolin-1-one], under “Table 2”, the EC50 lay within 0.1 to 100 nM.
Same read-out and setting: next, `NC(=O)NCCn1c(=O)oc2ccc(Nc3ccc(N4CCC(C(F)(F)F)CC4)cc3)cc21` [Compound 417, 1-(2-(2-oxo-5-((4-(4-(trifluoromethyl)piperidin-1-yl)phenyl)amino)benzo[d]oxazol-3(2H)-yl)ethyl)urea]: 0.1 to 100 nM; `Cn1c(=O)n(C)c2cc(Nc3cnc(N4CCC(C(F)(F)F)CC4)c(F)c3)ccc21` [Compound 378, 5-((5-fluoro-6-(4-(trifluoromethyl)piperidin-1-yl)pyridin-3-yl)amino)-1,3-dimethyl-1,3-dihydro-2H-benzo[d]imidazol-2-one]: 0.1 to 100 nM; `O=C1c2ccc(Nc3ccc(N4CCC(C(F)(F)F)CC4)cc3)cc2CN1C1CCOCC1` [Compound 258, 2-(tetrahydro-2H-pyran-4-yl)-5-((4-(4-(trifluoromethyl)piperidin-1-yl)phenyl)amino)isoindolin-1-one]: 0.1 to 100 nM.
